US4642314A, “Antiulcer compounds” (Nisshin Flour Milling Co., Ltd., priority 1984, dated 1987)

How the values were obtained:
[1] = tested on: acetic acid-induced ulcer; assay: Acetic acid-induced ulcer (Curative test); type: in vivo, rat (male SD rats); settings: Table 2; rat, 0.05 ml of 15% acetic acid underneath the serosa; lesion area on 14th day
Method: (§1) In the case of reserpine-induced ulcer, the assay was performed according to the description in "Arch. Int. Pharmacodym. Ther. 147,113 (1964)", and in the case of acetic acid-induced ulcer, the assay was performed according to the method described in "Jap. J. Pharmac. 19,418 (1969)", by inducing experimental ulcer in rat and evaluating the effect thereon of the compounds tested.
Groups of rats, each consisting of 6 male SD rats weighing 150-200 g were used. The stomach of ether-anesthesized rat was exposed and while taking acre not to injure blood vessels, 0.05 ml of 15% aqueous acetic acid solution was injected underneath the serosa. On the 14th day, the rats were killed with chloroform, the stomach taken out and the area of the infected lesion measured.
The curative ratio was calculated using the above equation: [formula]

reserpine-induced ulcer = assay: Reserpine-induced ulcer (Preventive test); type: in vivo, rat (male SD rats); settings: Table 1; rat, 100 mg/kg oral, 30 min before reserpine 15 mg/kg i.p.; evaluated at 18 h; read-out: Preventive effect (preventive ratio)
Method: as §1
Groups of rats, each consisting of 6 male SD rats weighing 150-200 g were used. After 24 hours' fasting, a sample compound was orally administered to the rat at the dose of 100 mg/kg body weight, and 30 minutes after the administration, reserpine was intraperitoneally injected at the dose of 15 mg/kg body weight. Eighteen hours after the administration, the rats were killed with chloroform. The stomach was taken out, and severity of the hemorrhaging lesion was evaluated according to the method as above ("Arch. Int. Pharmacodym. Ther. 147,113 (1964)).
The preventive ratio was calculated using the following equation, [formula] wherein the control animals were intraperitoneally given reserpine only, at the dose of 15 mg/kg body weight.

[2] = acute toxicity (LD50), intraperitoneal route in mice; type: in vivo; settings: mouse, in vivo, ip
mice = assay: as above; type: in vivo

CC(=O)OCC=C(C)CCC=C(C)CCC=C(C)CCC=C(C)CCC=C(C)CCC=C(C)CCC=C(C)CCC=C(C)CCC=C(C)CCC=C(C)C [Decaprenyl acetate]
Curative effect (curative ratio) [1]: + (10%-25%)
inhibition in vivo at 100 mg/kg (reserpine-induced ulcer): 40 to 60%
LD50 ([2]; Table 2): > 5000 mg/kg
LD50 (mice; Table 1): > 5000 mg/kg

CC(C)=CCCC(C)=CCCC(C)=CCCC(C)=CCCC(C)=CCCC(C)=CCCC(C)=CCCC(C)=CCCC(C)=CCCC(C)=CCCC(=O)OCC=C(C)CCC=C(C)CCC=C(C)CCC=C(C)CCC=C(C)CCC=C(C)CCC=C(C)CCC=C(C)CCC=C(C)CCC=C(C)C [Decaprenyl decaprenylacetate]
Curative effect (curative ratio) [1]: + (10%-25%)
LD50 (mice; Table 2): > 5000 mg/kg

CCCCCCCC/C=C\CCCCCCCC(=O)OCC=C(C)CCC=C(C)CCC=C(C)CCC=C(C)CCC=C(C)CCC=C(C)CCC=C(C)CCC=C(C)CCC=C(C)CCC=C(C)C [Decaprenyl oleate]
Curative effect (curative ratio) [1]: ++ (25%-40%)
inhibition in vivo at 100 mg/kg (reserpine-induced ulcer): 40 to 60%
LD50 ([2]; Table 2): > 5000 mg/kg
LD50 (mice; Table 1): > 5000 mg/kg

CC(C)=CCCC(C)=CCCC(C)=CCCC(C)=CCCC(C)=CCCC(C)=CCCC(C)=CCCC(C)=CCCC(C)=CCCC(C)=CCOC(=O)CCC=C(C)CCCC(C)CCCC(C)CCCC(C)C (stereo not shown) [Decaprenyl phytylacetate]
Curative effect (curative ratio) [1]: ++ (25%-40%)
inhibition in vivo at 100 mg/kg (reserpine-induced ulcer): 40 to 60%
LD50 ([2]; Table 2): > 5000 mg/kg
LD50 (mice; Table 1): > 5000 mg/kg

CC(C)=CCCC(C)=CCCC(C)=CCCC(C)=CCCC(C)=CCCC(C)=CCCC(C)=CCCC(C)=CCCC(C)=CCCC(C)=CCCC(=O)O [Decaprenylacetic acid]
Curative effect (curative ratio) [1]: +++ (40%-)
inhibition in vivo at 100 mg/kg (reserpine-induced ulcer): 40 to 60%
LD50 ([2]; Table 2): > 4000 mg/kg
LD50 (mice; Table 1): > 4000 mg/kg

CC(C)=CCCC(C)=CCCC(C)=CCCC(=O)OCC=C(C)CCC=C(C)C [Gefarnate, 3,7-dimethyl-2,6-octadienyl-5,9,13-trimethyl-4,8,12-tetradecatrienoate, reference compound]
Curative effect (curative ratio) [1]: ± (-10%)
inhibition in vivo at 100 mg/kg (reserpine-induced ulcer): 10 to 40%

C=CC(C)(O)CCC=C(C)CCC=C(C)CCC=C(C)CCC=C(C)CCC=C(C)CCC=C(C)CCC=C(C)CCC=C(C)CCC=C(C)C (stereo not shown) [Isodecaprenol]
Curative effect (curative ratio) [1]: ++ (25%-40%)
inhibition in vivo at 100 mg/kg (reserpine-induced ulcer): 10 to 40%
LD50 ([2]; Table 1): > 4000 mg/kg
LD50 (mice; Table 2): > 4000 mg/kg

C=CC(C)(CCCC(C)CCCC(C)CCCC(C)C)OC(=O)CCCCCCC/C=C\CCCCCCCC (stereo not shown) [Isophytyl oleate]
Curative effect (curative ratio) [1]: +++ (40%-)
inhibition in vivo at 100 mg/kg (reserpine-induced ulcer): > 60%
LD50 ([2]; Table 2): > 4000 mg/kg
LD50 (mice; Table 1): > 4000 mg/kg

CC(=O)OC/C=C(\C)CCC[C@H](C)CCC[C@H](C)CCCC(C)C [Phytyl acetate]
Curative effect (curative ratio) [1]: + (10%-25%)
inhibition in vivo at 100 mg/kg (reserpine-induced ulcer): 40 to 60%
LD50 ([2]; Table 2): > 5000 mg/kg
LD50 (mice; Table 1): > 5000 mg/kg

CCCCCCCC/C=C/CCCCCCCCCCCC(=O)OC/C=C(\C)CCC[C@H](C)CCC[C@H](C)CCCC(C)C [Phytyl brassidate]
Curative effect (curative ratio) [1]: ++ (25%-40%)
inhibition in vivo at 100 mg/kg (reserpine-induced ulcer): 10 to 40%
LD50 ([2]; Table 2): > 4000 mg/kg
LD50 (mice; Table 1): > 4000 mg/kg

CC(C)=CCCC(C)=CCCC(C)=CCCC(C)=CCCC(C)=CCCC(C)=CCCC(C)=CCCC(C)=CCCC(C)=CCCC(C)=CCCC(=O)OCC=C(C)CCCC(C)CCCC(C)CCCC(C)C (stereo not shown) [Phytyl decaprenylacetate]
Curative effect (curative ratio) [1]: + (10%-25%)
inhibition in vivo at 100 mg/kg (reserpine-induced ulcer): 10 to 40%
LD50 ([2]; Table 2): > 4000 mg/kg
LD50 (mice; Table 1): > 4000 mg/kg

CCCCCCCC/C=C\CCCCCCCC(=O)OC/C=C(\C)CCC[C@H](C)CCC[C@H](C)CCCC(C)C [Phytyl oleate]
Curative effect (curative ratio) [1]: +++ (40%-)
inhibition in vivo at 100 mg/kg (reserpine-induced ulcer): > 60%
LD50 ([2]; Table 2): > 4000 mg/kg
LD50 (mice; Table 1): > 4000 mg/kg

C/C(=C\CCC(=O)O)CCC[C@H](C)CCC[C@H](C)CCCC(C)C [Phytylacetic acid]
Curative effect (curative ratio) [1]: + (10%-25%)
inhibition in vivo at 100 mg/kg (reserpine-induced ulcer): 10 to 40%
LD50 ([2]; Table 2): > 5000 mg/kg
LD50 (mice; Table 1): > 5000 mg/kg

CC(C)CCCC(C)CCCC(C)CCCC(C)CCCC(C)CCCC(C)CCCC(C)CCCC(C)CCCC(C)CCCC(C)CCO (stereo not shown) [Saturated decaprenol]
Curative effect (curative ratio) [1]: ++ (25%-40%)
inhibition in vivo at 100 mg/kg (reserpine-induced ulcer): 10 to 40%
LD50 ([2]; Table 1): > 5000 mg/kg
LD50 (mice; Table 2): > 5000 mg/kg

CC(C)=CCC/C(C)=C/CC/C(C)=C/CC/C(C)=C/CC/C(C)=C/CC/C(C)=C/CC/C(C)=C/CC/C(C)=C/CC/C(C)=C/CO [Solanesol]
Curative effect (curative ratio) [1]: ++ (25%-40%)
inhibition in vivo at 100 mg/kg (reserpine-induced ulcer): 10 to 40%
LD50 ([2]; Table 1): > 4000 mg/kg
LD50 (mice; Table 2): > 4000 mg/kg

CCCCCCCC/C=C\CCCCCCCC(=O)OCC=C(C)CCC=C(C)CCC=C(C)CCC=C(C)CCC=C(C)CCC=C(C)CCC=C(C)CCC=C(C)CCC=C(C)C [Solanesyl oleate]
Curative effect (curative ratio) [1]: ++ (25%-40%)
inhibition in vivo at 100 mg/kg (reserpine-induced ulcer): 10 to 40%
LD50 ([2]; Table 2): > 4000 mg/kg
LD50 (mice; Table 1): > 4000 mg/kg

CC(C)=CCCC(C)=CCCC(C)=CCCC(C)=CCCC(C)=CCCC(C)=CCCC(C)=CCCC(C)=CCCC(C)=CCCC(C)=CCCC(=O)Oc1c(C)c(C)c2c(c1C)CCC(C)(CCCC(C)CCCC(C)CCCC(C)C)O2 (stereo not drawn) [α-Tocopheryl decaprenylacetate]
inhibition in vivo at 100 mg/kg (reserpine-induced ulcer): 10 to 40%
LD50 ([2]; Table 1): > 4000 mg/kg

CC(C)=CCCC(C)=CCCC(C)=CCCC(=O)Oc1c(C)c(C)c2c(c1C)CCC(C)(CCCC(C)CCCC(C)CCCC(C)C)O2 (stereo not drawn) [α-Tocopheryl farnesylacetate]
Curative effect (curative ratio) [1]: ++ (25%-40%)
inhibition in vivo at 100 mg/kg (reserpine-induced ulcer): 40 to 60%
LD50 ([2]; Table 2): > 4000 mg/kg
LD50 (mice; Table 1): > 4000 mg/kg

CC(C)=CCCC(C)=CCCC(=O)Oc1c(C)c(C)c2c(c1C)CCC(C)(CCCC(C)CCCC(C)CCCC(C)C)O2 (stereo not drawn) [α-Tocopheryl geranylacetate]
Curative effect (curative ratio) [1]: + (10%-25%)
inhibition in vivo at 100 mg/kg (reserpine-induced ulcer): 40 to 60%
LD50 ([2]; Table 2): > 4000 mg/kg
LD50 (mice; Table 1): > 4000 mg/kg

CC(=CCCC(=O)Oc1c(C)c(C)c2c(c1C)CCC(C)(CCCC(C)CCCC(C)CCCC(C)C)O2)CCCC(C)CCCC(C)CCCC(C)C (stereo not drawn) [α-Tocopheryl phytylacetate]
Curative effect (curative ratio) [1]: +++ (40%-)
inhibition in vivo at 100 mg/kg (reserpine-induced ulcer): 10 to 40%
LD50 ([2]; Table 2): > 4000 mg/kg
LD50 (mice; Table 1): > 4000 mg/kg

CC(C)=CCCC(C)=CCCC(C)=CCCC(C)=CCCC(C)=CCCC(C)=CCCC(C)=CCCC(C)=CCCC(C)=CCCC(=O)Oc1c(C)c(C)c2c(c1C)CCC(C)(CCCC(C)CCCC(C)CCCC(C)C)O2 (stereo not drawn) [α-Tocopheryl solanesylacetate]
inhibition in vivo at 100 mg/kg (reserpine-induced ulcer): 40 to 60%
LD50 ([2]; Table 1): > 4000 mg/kg
